Numbers after ± are expanded uncertainties.
How the values were obtained:
[1] = Crystal
[2] = Molar enthalpy of transition or fusion; settings: Crystal; DSC
[3] = molar heat capacity at constant pressure; settings: 101.33 kPa, Crystal, Small sample (50 mg) DSC
[4] = molar enthalpy of vaporization or sublimation; settings: 351.22 K; Crystal; Static calorimetry

CCCC(=O)c1ccc(O)cc1 [1-(4-hydroxyphenyl)-1-butanone]
Settings | mass density [kg/m3]
[1], 298 K, 101.33 kPa, X-ray diffraction | 1204.5 ± 7.1

Settings | Normal melting temperature [°C] | molar heat capacity at constant pressure [J/K/mol]
[1], DTA | 91.6 ± 0.4 | –
[3], 288.67 K | – | 219.2 ± 14
[3], 289.99 K | – | 221.2 ± 15
[3], 291.29 K | – | 221.3 ± 14
[3], 291.6 K | – | 222 ± 15
[3], 292.87 K | – | 223.3 ± 15
[3], 294.14 K | – | 224.2 ± 14
[3], 295.4 K | – | 225.7 ± 13
[3], 296.66 K | – | 227.4 ± 12
[3], 297.92 K | – | 228.6 ± 13
[3], 299.17 K | – | 229.2 ± 12
[3], 300.43 K | – | 231 ± 12
[3], 301.68 K | – | 232.3 ± 10
[3], 302.94 K | – | 232.9 ± 11
[3], 304.19 K | – | 234.6 ± 7.7
[3], 305.45 K | – | 234.9 ± 9.2
[3], 306.7 K | – | 236.9 ± 9.5
[3], 307.95 K | – | 238.6 ± 8.6
[3], 309.21 K | – | 239.7 ± 7.8
[3], 310.46 K | – | 240.7 ± 7.8
[3], 311.71 K | – | 242 ± 7.2
[3], 312.96 K | – | 243.7 ± 7.8
[3], 314.21 K | – | 244.9 ± 6.2
[3], 315.46 K | – | 245.8 ± 5.9
[3], 316.71 K | – | 247 ± 4.7
[3], 317.96 K | – | 247.7 ± 6.2
[3], 319.22 K | – | 249.1 ± 5
[3], 320.47 K | – | 250.2 ± 4
[3], 321.72 K | – | 251.4 ± 5.5
[3], 322.97 K | – | 253 ± 5.2
[3], 324.23 K | – | 254.5 ± 6
[3], 325.48 K | – | 256.4 ± 5
[3], 326.73 K | – | 257.1 ± 6.3
[3], 327.98 K | – | 258.9 ± 6.5
[3], 329.23 K | – | 260.2 ± 6.5
[3], 330.48 K | – | 262.1 ± 7.6
[3], 331.73 K | – | 263.6 ± 7.7
[3], 332.98 K | – | 265.5 ± 6.3
[3], 334.23 K | – | 265.9 ± 7.7
[3], 335.48 K | – | 267.6 ± 7.1
[3], 336.73 K | – | 270.1 ± 6.6
[3], 337.98 K | – | 270.4 ± 7.7
[3], 339.23 K | – | 272 ± 8
[3], 340.48 K | – | 274.4 ± 10
[3], 341.73 K | – | 276 ± 8.9
[3], 342.98 K | – | 278.2 ± 11
[3], 344.23 K | – | 279.7 ± 10
[3], 345.48 K | – | 281.2 ± 12
[3], 346.73 K | – | 282.8 ± 11
[3], 347.98 K | – | 284.5 ± 12
[3], 349.23 K | – | 287 ± 13
[3], 350.48 K | – | 289 ± 12

Settings | Molar enthalpy of transition or fusion [kJ/mol] | molar enthalpy [kJ/mol]
[2] | 24 ± 0.54 | –
[4] | – | 114 ± 1.7

— the NIST ThermoML archive (doi:10.1016/j.jct.2016.09.026)
